Consider one substance from paper PMC6065317, “Rice Defensin OsAFP1 is a New Drug Candidate against Human Pathogenic Fungi” (Scientific Reports, 2018).

The test system of experiment [1] is C. albicans CAI4 cytoplasmic membrane. The experiment can be described thus: PI uptake assay (flow cytometry). Format: cell-based, Candida albicans. The conditions noted are these: 4 × IC50 (6 μM melittin, 8 μM OsAFP1, 20 or 24 μM peptide 1, 40 μM peptide 7), 30 °C, 3 h, PI 5 μg/ml, PBS control 0.1 %. The method, then:
C. albicans CAI4 cells (2 × 10^5 cells/ml) were treated with OsAFP1, peptide 1, peptide 7, or melittin at 4 × IC50 concentrations (8 μM for OsAFP1, 24 μM for peptide 1, 40 μM for peptide 7, and 6 μM for melittin[52],[53]) and incubated at 30 °C for 3 h. After the addition of PI (5 μg/ml) and incubation at room temperature in the dark for 30 min, the cells were analysed using a flow cytometer equipped with a 488 nm air-cooled argon laser. At least 10,000 events per sample were recorded. As a negative control, PBS was used instead of antifungal agents, and the mixtures were treated in the same way.
A general note: In flow cytometry, cells or beads pass a laser one at a time.

Experiment [2] relates to C. albicans CAI4 cells. Nature of the experiment: Annexin V assay (apoptosis, epifluorescence microscopy). Format: cell-based, Candida albicans. The conditions noted are these: 16 μM (4 × MIC), 30 °C, 0.5 h; epifluorescence microscope. The method, then:
After being washed three times with KPB, the cells were resuspended in 500 μl of 1 × binding buffer and mixed with 5 μl each of annexin V-FITC and PI reagent (BioVision, Mountain View, CA, USA). The mixtures were incubated at room temperature in the dark for 5 min, and the cells were then observed under a TE2000-S epifluorescence microscope (Nikon, Tokyo, Japan) equipped with an appropriate objective lens [CFI Plan Fluor 100 × oil (Nikon)] and bandpass filters with 542 nm excitation and 620 nm emission for PI and 494 nm excitation and 518 nm emission for FITC.

The subject of another experiment is C. albicans CAI4. The experiment can be described thus: Thermal stability (MIC of heat-treated peptide). The format is cell-based, Candida albicans. The conditions noted are these: peptide heated at 100 °C for 10 min, 0–8 μM, OD650, n = 3. The method, then:
Antifungal assays to determine the MIC of OsAFP1 were performed as follows. Fungal cells (1 × 10^5 cells) were suspended in 100 μl of the appropriate medium containing 0–32 μM OsAFP1 in 96-well Costar cell culture plates. After incubation, OD650 was measured using a plate reader. […] In some measurements, because of aggregation of medium components, it was difficult to determine MIC values. In those cases, the cultures were plated on agar plates (0.5 × PDB), and the peptide concentration at which viable cell numbers were 1% or less than that in the control culture was considered the MIC. GraphPad Prism version 6.00 for Macintosh (GraphPad Software, La Jolla, CA, USA) was used to calculate IC50 values. Experiments were independently repeated at least three times. Detailed growth conditions for each fungus are provided in the “Microorganisms and culture conditions” section above.
Thermal stability of OsAFP1 was evaluated by comparing the MIC of heat-treated (10 min at 100 °C) peptide to the MIC of untreated peptide.

Experiment [3] concerns C. albicans CAI4 cells. Nature of the experiment: Fungicidal assay (CFU time course). Format: cell-based, Candida albicans. The conditions noted are these: 16 μM (4 × MIC), 30 °C, CFU count, n = 3. The procedure: C. albicans CAI4 cells (2 × 10^5 cells/ml) were treated with OsAFP1 and incubated at 30 °C for 0, 0.17, 0.5, 1, 2, and 4 h. After being washed three times with KPB, the cells were plated on agar plates (0.5 × PDB). Calculated CFUs in the plate were used as indicators of viable cells. […] Therefore, in the present assay, 4 × MIC concentration was used, because long-term OsAFP1 treatment may produce various undesirable effects other than fungicidal activity and make the assay difficult to interpret. 4 × MIC concentration was also applied in the subsequent annexin V assay and ICC staining analysis.

The next experiment relates to Escherichia coli K-12. Nature of the experiment: Antibacterial assay (BacTiter-Glo ATP luminescence). The format is cell-based. The conditions noted are these: E. coli K-12; LB broth, 37 °C; 0–32 μM; MIC = >99% reduction of ATP luminescence. The method, then: (§1) Seven microbial strains were used for OsAFP1 antimicrobial activity testing. P. gingivalis ATCC 33277 cells were cultured in modified Gifu anaerobic medium (GAM) (Nissui, Tokyo, Japan) in an anaerobic jar (Mitsubishi Gas Chemical, Tokyo, Japan) in the presence of a deoxygenating regent (AnaeroPack, Mitsubishi Gas Chemical) for 48 h at 37 °C. E. coli K-12 NBRC3301, S. mutans JCM 5705, S. aureus NBRC 12732, and P. acnes JCM 6473 cells were cultured in Luria-Bertani (LB) broth, brain-heart infusion broth (Nissui), trypticase soy broth (BD Biosciences, Franklin Lakes, NJ, USA), and GAM broth (Nissui), respectively, under facultative anaerobic conditions for 4–24 h at 37 °C. C. albicans CAI4 (IFM 61937) cells were cultured in 0.5 × potato dextrose broth (PDB) supplemented with 25 μg/ml of uridine under facultative anaerobic conditions for 14 h at 30 °C. S. cerevisiae BY4742 and S288C cells were cultured in 0.5 × PDB supplemented with 30 μg/ml of uridine, histidine, and lysine and 60 μg/ml of leucine under facultative anaerobic conditions for 14 h at 27 °C. These microbial strains were purchased from the American Type Culture Collection (Manassas, VA, USA), National Institute of Technology and Evaluation (Tokyo, Japan), RIKEN BioResource Center (Tsukuba, Japan), Medical Mycology Research Center (Chiba, Japan), and GE Healthcare (Little Chalfont, UK).
(§2) Recombinant OsAFP1 and its mutants used in this study were prepared as described in “Supplementary Information”. Antibacterial assays to determine the MIC of OsAFP1 were performed using a modified BacTiter-Glo Luminescent cell viability assay kit (Promega, Madison, WI, USA). This assay quantifies ATP in bacterial cultures to determine the number of live cells. All procedures were performed following the manufacturer’s instructions. Briefly, bacterial cells (1 × 10^4 cells/ml) were cultured in 100 μl of the appropriate medium (as specified in the “Microorganisms and culture conditions” section) in the presence of 0–32 μM OsAFP1 in 96-well Costar cell culture plates. After appropriate incubation for 4–40 h, 10 μl of Lucifell ATP-eliminating reagent (Kikkoman, Chiba, Japan) was added to each well to reduce medium-derived ATP and mixed for 10 min using an orbital shaker. The cell culture (50 μl) was mixed gently with BacTiter-Glo reagent (50 μl) in a well of white Optiplate-96 plates. After incubation for 15 s, luminescence at 560 nm was measured using a plate reader. MIC was defined as the minimum concentration of OsAFP1 that reduced the sample ATP luminescence by >99% compared with that of the control culture. Experiments were independently repeated at least three times.

In experiment [4] the test system is Porphyromonas gingivalis ATCC 33277. Described as above. The settings on record: P. gingivalis ATCC 33277; modified GAM, anaerobic, 37 °C; 0–32 μM; MIC = >99% reduction of ATP luminescence. Format: cell-based. The method, then:
as §1, §2

For experiment [5], the system named is Streptococcus mutans JCM 5705. The experiment is described as above. The format is cell-based. The settings on record: S. mutans JCM 5705; brain-heart infusion broth, 37 °C; 0–32 μM; MIC = >99% reduction of ATP luminescence. The procedure: as §1, §2

Where no end group is shown, it is not given here.

Turning to “OsAFP1: rice defensin (Os02g41904, UniProtKB Q6K209); recombinant mature peptide produced in E. coli, four disulphide bonds (RHCLSQSHRFKGMCVSSNNCANVCRTESFPDGECKSHGLERKCFCKKVC; disulfide (positions not given here); UniProt Q6K209 32-80, looked up)”, in experiment [1], the “cells stained with PI” value is given as 3.6%. In the experiment on C. albicans CAI4 cells [2], the “annexin V-FITC fluorescence (early apoptosis)” value is listed as “almost all fungal cells emitted fluorescence”. In addition, in the experiment with C. albicans CAI4, the “MIC of heat-treated peptide” value turned out to be 8 µM. The “C. albicans cells died” value is on record as “about 50%” with C. albicans CAI4 cells [3] (30 min) and “almost all cells died” in the experiment on C. albicans CAI4 cells [3] (4 h). The MIC (with Escherichia coli K-12; in experiment [4]; in experiment [5]) was >32 µM in each case.

What is called MIC is the lowest concentration that inhibits growth of the organism. Low values mean a more susceptible organism, high ones a less susceptible organism.
